These are literature values, as cited in US20060025476A1, “Use of methyl pyruvate for the purpose of reducing weight gain in mammals” (priority 2004, published 2006).

The test system of one data set is PPARa/g. The note with it: high-fat-fed rats.
For data set [1], the system named is guinea-pig cerebral cortical synaptosomes.
Data set [2] has as its system fetal rat brown adipocyte primary cultures.
Data set [3] has as its system porcine carotid artery strips.
In another data set the test system is Na(+)-K(+)-ATPase. The note with it: 10 microM.
Data set [4] has as its target T1, PPAR-alpha (Rattus norvegicus, UniProt P37230).
T1 sequence (P37230 1-468): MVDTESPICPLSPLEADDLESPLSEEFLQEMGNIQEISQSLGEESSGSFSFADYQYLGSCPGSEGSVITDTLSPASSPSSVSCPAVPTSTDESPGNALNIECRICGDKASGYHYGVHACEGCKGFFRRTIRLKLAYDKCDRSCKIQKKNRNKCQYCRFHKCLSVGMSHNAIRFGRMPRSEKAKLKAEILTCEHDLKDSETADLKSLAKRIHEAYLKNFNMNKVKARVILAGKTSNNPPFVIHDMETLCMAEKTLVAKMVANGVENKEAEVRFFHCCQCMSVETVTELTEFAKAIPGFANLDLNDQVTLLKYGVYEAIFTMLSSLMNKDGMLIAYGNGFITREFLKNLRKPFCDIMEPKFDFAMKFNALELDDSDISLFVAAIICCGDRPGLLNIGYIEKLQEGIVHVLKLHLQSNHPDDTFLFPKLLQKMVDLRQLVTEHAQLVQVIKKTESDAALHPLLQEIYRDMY
Details: from tissue; host or cells: rat gastrocnemius muscle, in vivo. Particulars: gastrocnemius muscle, feeding.

Data set [5] addresses T1, PPAR-alpha. More on the design: from tissue. Particulars: control and high-fat-fed rats.
For data set [6], the system named is isolated rat pancreatic islets. Particulars: compared with pyruvate.
Another data set concerns pancreatic islets. Particulars: NAD(P)H imaging with LipDH autofluorescence.
Data set [7] concerns Jurkat T-lymphocyte mitochondria.
The subject of data set [8] is pancreatic beta-cells.
Data set [9] has as its system isolated rat pancreatic islets.
Data set [10] has as its system pancreatic beta-cells. The source holds these as a separate data set.
The test system of the next data set is whole islets. The note with it: 5 mM.
Data set [11] concerns isolated beta-cell mitochondria. The note with it: accumulation of ATP in medium, in combination with glutamate.
For the next data set, the target named is T2, K(ATP) channels (Homo sapiens, UniProt Q09428+Q14654).
T2 construct: endogenous in cells; host or cells: pancreatic beta-cells
T2 sequence (Q14654 whole entry): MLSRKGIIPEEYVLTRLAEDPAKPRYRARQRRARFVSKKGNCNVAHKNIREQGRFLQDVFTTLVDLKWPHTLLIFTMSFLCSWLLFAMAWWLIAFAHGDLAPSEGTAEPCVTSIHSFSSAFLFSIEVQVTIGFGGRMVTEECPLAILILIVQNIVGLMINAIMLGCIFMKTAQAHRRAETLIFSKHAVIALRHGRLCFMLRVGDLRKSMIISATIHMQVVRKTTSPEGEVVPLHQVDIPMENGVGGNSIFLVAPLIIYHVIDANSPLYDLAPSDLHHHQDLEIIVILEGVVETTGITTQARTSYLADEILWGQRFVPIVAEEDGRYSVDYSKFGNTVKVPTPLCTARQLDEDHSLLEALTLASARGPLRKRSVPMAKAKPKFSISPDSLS
T2 sequence (Q09428 whole entry): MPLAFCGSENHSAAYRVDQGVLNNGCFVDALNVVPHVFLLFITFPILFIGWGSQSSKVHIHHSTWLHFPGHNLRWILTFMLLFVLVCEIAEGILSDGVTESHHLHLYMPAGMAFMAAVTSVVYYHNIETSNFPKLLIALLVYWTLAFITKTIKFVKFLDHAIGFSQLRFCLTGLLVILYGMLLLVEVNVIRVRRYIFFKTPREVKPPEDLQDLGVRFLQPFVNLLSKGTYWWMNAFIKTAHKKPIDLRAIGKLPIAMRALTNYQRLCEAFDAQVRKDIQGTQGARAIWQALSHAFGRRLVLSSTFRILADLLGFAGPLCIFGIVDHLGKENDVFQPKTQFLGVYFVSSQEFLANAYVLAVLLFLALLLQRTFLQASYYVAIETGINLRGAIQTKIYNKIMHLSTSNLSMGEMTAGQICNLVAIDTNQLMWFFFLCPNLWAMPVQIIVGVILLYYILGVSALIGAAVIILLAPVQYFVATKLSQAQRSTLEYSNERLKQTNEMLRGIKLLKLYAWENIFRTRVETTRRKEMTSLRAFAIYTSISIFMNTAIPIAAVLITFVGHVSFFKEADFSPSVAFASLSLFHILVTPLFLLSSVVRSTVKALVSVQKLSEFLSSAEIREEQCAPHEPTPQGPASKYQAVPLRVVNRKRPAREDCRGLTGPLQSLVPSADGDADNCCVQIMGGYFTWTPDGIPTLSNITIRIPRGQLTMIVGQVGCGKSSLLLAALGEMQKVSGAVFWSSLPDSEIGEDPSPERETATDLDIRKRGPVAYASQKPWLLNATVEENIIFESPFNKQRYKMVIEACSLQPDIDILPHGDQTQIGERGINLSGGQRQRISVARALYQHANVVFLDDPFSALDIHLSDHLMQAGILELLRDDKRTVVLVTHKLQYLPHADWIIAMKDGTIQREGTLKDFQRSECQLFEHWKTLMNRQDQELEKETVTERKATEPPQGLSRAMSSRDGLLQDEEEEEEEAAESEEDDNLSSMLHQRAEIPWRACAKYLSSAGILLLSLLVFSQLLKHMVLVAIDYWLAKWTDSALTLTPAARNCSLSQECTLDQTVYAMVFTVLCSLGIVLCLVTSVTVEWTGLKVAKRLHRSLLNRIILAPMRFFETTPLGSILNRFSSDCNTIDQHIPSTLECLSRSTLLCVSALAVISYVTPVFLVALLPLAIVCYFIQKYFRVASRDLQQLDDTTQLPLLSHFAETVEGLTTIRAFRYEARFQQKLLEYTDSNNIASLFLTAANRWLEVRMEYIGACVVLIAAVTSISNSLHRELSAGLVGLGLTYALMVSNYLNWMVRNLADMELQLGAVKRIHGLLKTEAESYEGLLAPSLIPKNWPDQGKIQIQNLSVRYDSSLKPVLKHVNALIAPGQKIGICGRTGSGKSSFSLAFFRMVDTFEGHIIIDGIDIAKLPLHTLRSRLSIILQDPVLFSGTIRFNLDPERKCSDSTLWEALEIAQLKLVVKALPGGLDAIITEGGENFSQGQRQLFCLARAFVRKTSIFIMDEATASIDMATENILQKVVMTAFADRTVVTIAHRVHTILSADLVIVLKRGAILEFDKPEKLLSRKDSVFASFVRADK

The subject of another data set is porcine carotid arteries. The note with it: added to amino-oxyacetic acid.
The test system of a further data set is UCP-1 mRNA expression. Particulars: 4-5 h, basal or rosiglitazone-treated cells.

The structures appear in SMILES notation. Where two headings read alike, the source gives them in different places.

As for `CCO[C@@H](Cc1ccc(OCCc2ccc(OS(C)(=O)=O)cc2)cc1)C(=O)O` [tesaglitazar], in the data set with PPARa/g, the “diglyceride and long chain acyl coenzyme A in skeletal muscle” value is on record as “decreased”; the hepatic triglyceride accumulation entry is “reduced”. Besides, in the data set on PPARa/g (7 d), the “glucose infusion rate during hyperinsulinemic-euglycemic clamp” value is given as “increase”.

With `NOCC(=O)O` [amino-oxyacetic acid], in [1], the “negative shift in the cytosolic NAD+/NADH redox potential” value is 26 mV.

On to `CC1=C(/C=C/C(C)=C\C=C\C(C)=C\C(=O)O)C(C)(C)CCC1` [9-cis-retinoic acid], for which the “p44/p42 and p38 mitogen-activated protein kinase activation” value in [2] was “induce”.

As to `[Cl-].[K+]` [KCl], the “change in resting tone” value in data set [3] (10 mM KCl, glucose-PSS) is -0.8 ± 0.8 g; in data set [3] (10 mM KCl, pyruvate-PSS), -2.1 ± 0.8 g. In data set [3] (10 mM KCl, lactate-PSS), the “change in resting tone (increased contraction)” value was 1.5 ± 0.7 g.

In the case of `O=S(=O)(c1ccccc1)N(CC(F)(F)F)c1ccc(C(O)(C(F)(F)F)C(F)(F)F)cc1` [T0901317], the “suppressive effects of LXRs on PPARa-induced PPRE-luciferase activity” value in the data set with LXR is “dose dependently enhanced”.

Regarding `CC(O)C(=O)O` (stereo not drawn) [lactate], the “increase of O2 consumption” value in data set [3] (10 mm in PSS) is listed as “without effect”.

As to `CC1=C(/C=C/C(C)=C/C=C/C(C)=C/C(=O)O)C(C)(C)CCC1` [all-trans-retinoic acid], the “p44/p42 and p38 mitogen-activated protein kinase activation” value in [2] is recorded as “induce”.

As for `C[C@@H]1O[C@@H](O[C@H]2C[C@@H](O)[C@]3(CO)[C@H]4[C@H](O)C[C@]5(C)[C@@H](C6=CC(=O)OC6)CC[C@]5(O)[C@@H]4CC[C@]3(O)C2)[C@H](O)[C@H](O)[C@H]1O` [ouabain], the “glycolysis and lactate production” value in the data set on Na(+)-K(+)-ATPase is “decreased”.

Regarding `Cc1cccc(Nc2cc(Cl)nc(SCC(=O)O)n2)c1C` [WY14,643], on PPAR-alpha [4], the “pyruvate dehydrogenase kinase activity, PDK4 protein and PDK4 mRNA” value is given as “large increases”. Also, on PPAR-alpha [5], the “hepatic PDK4 protein” value is on record as “significantly increased”.

`COC(=O)C(C)=O` [methyl pyruvate]: in data set [6], the “efficiency in intramitochondrial metabolism (amino acid conversion, inhibition of glucose utilization, 14CO2 output)” value is “more efficient than pyruvate” and the mitochondrial alkalinization result is “more marked mitochondrial alkalinization than pyruvate”. Also, in the data set on pancreatic islets, the “NADH and NADPH response” value was “robust NADH and NADPH response”. In addition, the “cation current across the inner membrane of mitochondria” value in [7] is reported as “directly inhibited”. Moreover, in the data set on pancreatic beta-cells [8], the “ATP production or ATP/ADP ratio” value is “did not influence”, the “NAD(P)H autofluorescence” value is “slightly decreased” and the “[Ca2+]i” value is recorded as “sustained rise”. Besides, the “depolarization of beta-cell membrane potential” value with pancreatic beta-cells [8] (5-20 mM) is listed as “depolarized the beta-cell in a concentration-dependent manner”. Besides, the “cytosolic free Ca(2+) concentration” value with pancreatic beta-cells [8] (after an initial decrease) is recorded as “increased”. The electrical activity result in the data set on pancreatic beta-cells [8] (presence of 0.5 mM glucose) is on record as “elicited electrical activity”. Further, the insulin release result in data set [9] (D-glucose 16.7 mM and/or methyl ester 20.0 mM) is “negative insulinotropic action”. The insulin release entry in data set [9] (D-glucose 2.8 to 8.3 mM, ester not exceeding 10.0 mM) is on record as “positive insulinotropic action”. Also, the “increase in insulin secretion relative to that induced by glucose” value in the data set on pancreatic beta-cells [10] was 6 fold. Moreover, the “concentration of maximal effect on insulin secretion” value in the data set with pancreatic beta-cells [10] (absence of glucose) is 5 mM. In addition, the “ATP/ADP ratio in whole islets” value in the data set with whole islets is listed as “no effect”. In [11], the “ATP production with glutamate” value is reported as “higher than that induced by pyruvate/glutamate”. Also, the “block of KATP” value at K(ATP) channels is listed as “block”. For the same compound, the single-channel currents entry at K(ATP) channels (inside-out patches) is recorded as “blocked”. At K(ATP) channels (standard whole-cell configuration), the “K(ATP) current” value is “inhibited”.

Turning to `CC(C)CC[C@@H](O)[C@@H](C)[C@H]1CC[C@H]2[C@@H]3CC=C4C[C@@H](O)CC[C@]4(C)[C@H]3CC[C@]12C` [22 (R)-hydroxycholesterol], the “suppressive effects of LXRs on PPARa-induced PPRE-luciferase activity” value in the data set on LXR is “dose dependently enhanced”.

Take `CCCCCCCC(=O)O` [octanoate]: the “adverse energetic effects of malate-aspartate shuttle inhibition” value in the data set with porcine carotid arteries is reported as “normalized”.

With `COc1cccc(-c2cc(=O)c3ccccc3o2)c1N` [PD98059], the “negative effect of TNF-alpha on UCP-1 mRNA expression” value in the data set with UCP-1 mRNA expression is “reversed”.
